Assay results taken from ChEMBL document CHEMBL1157539, “Thousands of chemical starting points for antimalarial lead identification” (Nature, 2010).
Values joined by “and” are separate entries in the source; they are usually repeats but may differ in a detail not shown here. Identical values can stand only once.

Tested on: Plasmodium falciparum
Experiment: GSK_TCMDC: Inhibition of Plasmodium falciparum 3D7 in whole erythrocytes, using parasite LDH activity as an index of growth.
Type: functional, organism-based

Structure (SMILES) | XC50 (Plasmodium falciparum, 3D7) | XC50
CCCCCCCCn1c2c(c(=N)c3c1CCC3)CCCC2 | 109 nM | –
Cc1ccccc1C(=O)NC(NC(=S)Nc1ccc([N+](=O)[O-])cc1)C(Cl)(Cl)Cl (stereo not drawn) | 745 nM | –
CC(C)n1ncc2c(C(=O)Nc3ccc(C#N)c(Cl)c3)cc(C3CC3)nc21 | 962 nM | –
CCCOc1ccc(CNCCCCCCNCc2ccc(OCCC)c3ccccc23)c2ccccc12 | 410 nM | –
O=C(Nc1ccc([N+](=O)[O-])cc1O)Nc1ccccc1Oc1ccccc1 | 925 nM | –
C=CCOc1ccccc1CNCC(O)c1cc(Br)cs1 (stereo not drawn) | 332 nM | –
COC[C@H]1CCCN1Cc1ccc(-c2ccc(-c3nc4ccccc4[nH]3)s2)cc1 | 1000 nM | –
COc1ccc(Nc2nccc(NCC(O)c3cccc(C(F)(F)F)c3)n2)cc1 (stereo not drawn) | 886 nM | –
Cc1cc(NC(=O)[C@H](CC2CCCCC2)Nc2ccc(C#N)c3ccccc23)ccc1F | 684 nM | –
Cc1cccc2nc(-c3ccc(-c4cccc(C(=O)N5CCCCC5C(C)O)c4)s3)[nH]c12 (stereo not drawn) | 636 nM | –
c1cc(-c2ccc(CN3CCCC3)cc2)cc(-c2nc3ccccc3[nH]2)c1 | 690 nM | –
Cc1noc(C)c1-c1ccc2c(Nc3ccccc3C(C)(C)C)c(C(=O)NCc3cccc4ccccc34)cnc2c1 | 941 nM | –
Cc1ccc(F)c(OC2CCN(c3ccc(C(=O)NC4CC4)cn3)CC2)c1 | 823 nM | –
CCC(Cc1cnc2nc(N)nc(N)c2n1)c1ccc(C(=O)N[C@@H](CCC(=O)O)C(=O)O)cc1 (stereo partly drawn) [EDATREXATE] | 36.7 nM | –
Nc1nc(F)nc2nc[nH]c12 | 432 nM | –
N#Cc1ccc(-c2ccc(C(=O)NCCCCN3CCC(c4ccc5c(c4OCC(N)=O)CCCC5)CC3)cc2)cc1 | 984 nM | –
CC(C)CCCC(C)NC[C@@H](O)[C@H](Cc1ccccc1)NC(=O)c1cc(N2CCCC2=O)cc(N(c2ccccc2)S(C)(=O)=O)c1 (stereo partly drawn) | 58.4 nM | –
CNC(=O)C1Cc2c([nH]c3cc(Cl)ccc23)C2(CCN(CCc3ccccc3)CC2)N1 (stereo not drawn) | 934 nM | –
CC(=O)c1ccc(S(=O)(=O)N2CCC(C(=O)Nc3ccccc3N3CCCC3)CC2)cc1 | 833 nM | –
COc1ccc2nc(-c3ccccc3)cc(N/N=C/c3ccc([N+](=O)[O-])cc3)c2c1 | 149 nM | –
CNc1ccc(CNCc2cccc(-c3ccc(-c4nc5cccc(C)c5[nH]4)cc3)c2)cc1 | 660 nM | –

Structure (SMILES) | XC50 (Plasmodium falciparum, 3D7) | XC50
CCCCCc1cc(O)c2c(c1)OC(C)(C)CC2C1=CCN(Cc2ccccc2)CC1 (stereo not drawn) | 767 nM | –
CC(CN(C)C)C(=O)Nc1cccc(-c2ccc(-c3nc4cc(C(F)(F)F)ccc4[nH]3)cc2)c1 (stereo not drawn) | 248 nM | –
Cc1cccc2nc(-c3ccc(-c4ccc(CN5CCCC(O)C5)cc4)s3)[nH]c12 (stereo not drawn) | 830 nM | –
O=C(/C=C/c1ccc(Cl)c(Cl)c1)NCCCCCN1CCCC(CNC(=O)/C=C/c2ccccc2)C1 (stereo not drawn) | 791 nM | –
O=C(/C=C/c1ccc(Cl)c(Cl)c1)NC1CCC(CN2CCC(c3c[nH]c4cc(C(F)(F)F)ccc34)CC2)CC1 (stereo not drawn) | – | 278 nM and 897 nM
CN1CCCC(CN2CCN(Cc3cccc(-c4ccc(-c5nc6ccccc6[nH]5)cc4)c3)CC2)C1 (stereo not drawn) | 157 nM | –
CCCN1CCN(c2ccccc2NS(=O)(=O)c2ccc(C(=O)Nc3ccc(Cl)cc3)cc2)CC1 | 1140 nM | –
COc1ccc2nccc(N3CCCN(CCNS(=O)(=O)c4ccc5c(c4)NC(=O)CS5)CC3)c2n1 | 824 nM | –
CC(=O)Nc1ccc(C(=O)Nc2cccc(-c3ccc(-c4nc5ccccc5[nH]4)s3)c2)cn1 | 180 nM | –
Cc1ncccc1C(=O)Nc1ccc(-c2cccc(-c3nc4cccc(C)c4[nH]3)c2)cc1 | 733 nM | –
CC(C)(C)c1ccc(NC(=O)c2ccc(CN3CCCN(Cc4ccsc4)CC3)cc2)cc1 | 716 nM | –
O=[N+]([O-])c1ccc(Oc2c(Cl)cc(S(=O)(=O)N3CCC(CN4CCC(c5c[nH]c6ccccc56)CC4)CC3)cc2Cl)c(Cl)c1 | 998 nM | –
COc1ccc(O)c(Cc2cnc3nc(N)nc(N)c3c2C)c1 | 36.8 nM | –
CC(Cc1ccc(OCCOc2ccccc2)cc1)NCC(O)c1cccc(Cl)c1 (stereo not drawn) | 1040 nM | –
COc1ccc(NC(=O)[C@H](CC(C)C)Nc2cc(C)nc(NCCc3ccc(F)cc3)n2)cc1 | 925 nM | –
Cc1cc(NCc2ccccc2)nc2cc(O)ccc12 | 784 nM | –
FC(F)(F)c1ccc2[nH]c(-c3ccc(-c4cccc(CN5CCN(CCN6CCOCC6)CC5)c4)cc3)nc2c1 | 160 nM | –
COc1ccc(CN(C)CCCSc2ccc(NC(=O)c3cccc4c(=O)cc(-c5ccccc5)[nH]c34)cc2)cc1OC | 920 nM | –
Cc1cc(NC(c2ccc(Cl)cc2)c2ccc3cccnc3c2O)no1 (stereo not drawn) | 1090 nM | –
CCN(CC)C(C)(C)CN(Cc1ccc(-c2ccc(C(F)(F)F)cc2)cc1)C(=O)Cn1c(CCc2cccc(F)c2F)nc(=O)c2ccccc21 | 958 nM | –
Cc1cc(NC(=O)Nc2ccc(Oc3ccccc3)cc2)c2ccccc2n1 | 840 nM | –

Structure (SMILES) | XC50 (Plasmodium falciparum, 3D7) | XC50
CC(C)(C)c1ccc(/C=C/C(=O)NCCCCCN2CCC(c3c[nH]c4ccccc34)CC2)cc1 | 1090 nM | –
Oc1ccc(Nc2nc(NCc3ccccc3)c3ccccc3n2)cc1 | 192 nM | –
CCCc1ccccc1Nc1nc(C)cc(N(CC)CCCN2CCCCC2)n1 | 622 nM | –
COc1ccc2nccc(N3CCC(SCCNCc4ccc5c(n4)NC(=O)CS5)C3)c2n1 (stereo not drawn) | 253 nM | –
CCc1ccc(NC(=O)c2ccc(CN3CCCN(CC4CCCCC4)CC3)cc2)cc1 | 711 nM | –
Cc1cc2ccccc2c(CON2C(=N)N=C(N)NC2(C)C)c1C | 9.5 nM | –
CN1CCC(NCc2cccc(-c3nn(C)c4nc(NC5CCCC5)ncc34)c2)CC1 | 1020 nM | –
O=C(/C=C/c1ccc(Cl)c(Cl)c1)NCCCCCN1CCN(C(=O)Nc2cccc(F)c2)CC1 | 874 nM | –
CC(C)Oc1cc(-c2ccc(S(C)(=O)=O)cc2)nc(N(Cc2cccc(F)c2F)Cc2cccc(F)c2F)n1 | 121 nM | –
CCN(CC)S(=O)(=O)c1ccc(CCOCCCCCNCC(O)c2cc(Cl)c(N)c(Cl)c2)s1 (stereo not drawn) | 858 nM | –
CC1CCCC(NC(=O)CCOc2ccccc2)C1 (stereo not drawn) | 882 nM | –
NC(=O)N1CCN(Cc2ccc(Br)cc2)CC1 | 619 nM | –
Cc1ccc(Oc2ccc(CNc3nc(Nc4cccc(F)c4)nc(Nc4cccc(F)c4)n3)cc2)cc1 | 1210 nM | –
O=C(Nc1cccc(CN2CCCN(Cc3ccc4c(c3)OCO4)CC2)c1)c1cc2ccccc2s1 | 990 nM | –
Cc1cnc(C(=O)Nc2cccc(-c3ccc(-c4nc5cc(C(F)(F)F)ccc5[nH]4)s3)c2)cn1 | 704 nM | –
COCCN(CCOC)c1ncc(-c2ccsc2)c(-c2nc(C)c(C)s2)n1 | 843 nM | –
O=C(NC1CCC(CN2CCC(c3c[nH]c4ccccc34)CC2)CC1)c1cc(-c2cccc(Cl)c2)n(-c2ccc(Cl)cc2Cl)n1 (stereo not drawn) | 1080 nM | –
CCNc1cc(C(=O)N[C@@H](Cc2cccc(F)c2)[C@H](O)CNC(C)CCCC(C)C)cc(N2CCCCS2(=O)=O)c1 (stereo partly drawn) | 596 nM | –
O=C(NCCc1ccccc1)N(Cc1ccccc1-c1cccc(CNC2CCCC2)c1)C1CCN(Cc2ccccc2)CC1 | 832 nM | –
O=C(Nc1cccc(C(F)(F)F)c1)c1ccc(S(=O)(=O)NC2CCN(CC3CCCCC3)CC2)cc1 | 1160 nM | –
COc1ccccc1CNc1nc(Nc2ccccc2C)nc2ccccc12 | 806 nM | –

Structure (SMILES) | XC50 (Plasmodium falciparum, 3D7) | XC50
O=C(Nc1ccc(OC2CCN(Cc3ccco3)C2)c(Cl)c1)c1ccc2ncccc2c1 (stereo not drawn) | 1080 nM | –
CN(C)CCN(C)Cc1ccc(-c2ccc(NC(=O)c3cccc(C#N)c3)cc2)cc1 | 1270 nM | –
O=C(CC1CCCC1)N(CC1CCN(Cc2ccc(C(F)(F)F)cc2)CC1)c1ccc(N2CCOCC2)c(F)c1 | 432 nM | –
Cc1cc(N[C@@H](Cc2ccccc2)C(=O)NCc2cccc(F)c2)nc(NCCc2cccs2)n1 | 622 nM | –
CCNc1cc(C(=O)N[C@@H](Cc2ccc(F)c(F)c2)[C@H](O)CNC2CCCCC2)cc(N2CCCCS2(=O)=O)c1 | 117 nM | –
Cc1nc(C)c(CC(=O)Nc2ccc(-c3cccc(-c4nc5cc(C(F)(F)F)ccc5[nH]4)c3)cc2)s1 | 925 nM | –
O=[N+]([O-])c1ccc(C=NNc2nc(Nc3ccccc3)nc(Nc3ccccc3)n2)o1 | 837 nM | –
CC[C@H](C)CNC(=O)c1ccc(-c2cccc(CN3CCC(N4CCCC4)CC3)c2)nc1 | 787 nM | –
N#Cc1ccc(N2CCN(Cc3ccc(-c4ccc(-c5nc6cc(C(F)(F)F)ccc6[nH]5)s4)cc3)CC2)nc1 | 814 nM | –
Cc1cc(-c2cccc3c(NC(=O)N4CCc5cc6nccc(N7CCN8CCC[C@H]8C7)c6cc54)cccc23)cc(C)n1 | 485 nM | –
Clc1ccc(-c2nc(-c3ccncc3)c[nH]2)cc1Cl | 1060 nM | –
COc1ccc2nccc([C@@H](O)CN3CCC(NC(=O)c4ccc5nc(-n6cccc6)sc5c4)CC3)c2c1 | 1000 nM | –
CCCN(CCC)C(=O)c1cc(C(=O)N[C@@H](Cc2ccccc2)[C@H](O)CNC2CC2)cc(N2CCCCS2(=O)=O)c1 | 156 nM | –
CN1CCC(C(=O)Nc2ccc(-c3ccc(-c4nc5ccccc5[nH]4)s3)cc2)CC1 | 816 nM | –
O=S(=O)(NCCN1CCCC1)c1cccc(-c2cccc(CNCc3ccc(F)cc3)c2)c1 | 848 nM | –
CO/C(=C\C=C\c1cc2cc(Cl)c(Cl)cc2[nH]1)C(=O)NCCCN1CCCC[C@@H]1C | 755 nM | –
C=CCN(C(=O)c1ccc(Cl)c([N+](=O)[O-])c1)c1nc(-c2ccccc2)cs1 | 398 nM | –
O=C(c1ccc(F)c(F)c1)N1CCOC(CCN2CCC(c3ccccc3)CC2)(c2ccc(Cl)c(Cl)c2)C1 (stereo not drawn) | 1040 nM | –
COc1cc2nc(N3CC(C)N(C(=O)Cc4ccc(-c5ccccc5)cc4)C(C)C3)nc(N)c2cc1OC (stereo not drawn) | 796 nM | –
O=C(/C=C/c1ccc(Cl)c(Cl)c1)N1CCC(CCN2CCC(c3c[nH]c4cc5c(cc34)OCO5)CC2)CC1 | 732 nM | –
